The source of these data is publication PMC10908709, “3-styrylcoumarin scaffold-based derivatives as a new approach for leishmaniasis intervention: biological and molecular modeling studies” (Journal of Parasitic Diseases: Official Organ of the Indian …, 2024).

In data set [1] the test system is axenic amastigote forms of L. panamensis. Also on record: method as in Arango et al. 2010. Particulars: ref Arango et al. 2010; cited from earlier work.
In data set [2] the test system is intracellular amastigotes of L. (V) panamensis. As to the kind of experiment: In vitro antileishmanial activity on intracellular amastigotes (GFP parasites, flow cytometry). Type of data set: cell-based, Leishmania (Viannia) panamensis. Particulars: for EC50: read-out: Anti-leishmanial activity on intracellular amastigotes EC50 (converted); for SI (selectivity index = LC50/EC50): U-937 LC50 / amastigote EC50. As for the experimental part:
The activity of compounds was evaluated on intracellular amastigotes of L. (V) panamensis transfected with the green fluorescent protein gene (MHOM/CO/87/UA140-EGFP) (Pulido et al. [2012]). The effect of each compound was determined according to the inhibition of the infection evidenced by both, decrease of the infected cells and decrease of intracellular parasite amount. Briefly, U-937 human cells at a concentration of 3 × 10^5 cells/mL in RPMI 1640 containing 0.1 μg/mL of phorbol-12-myristate-13-acetate (PMA) were dispensed into each one of a 24-well cell culture plate and then infected with 5 day-old promastigotes in a 15:1 parasites per cell ratio. Plates were incubated at 34 °C, 5% CO2 during 3 h and cells were washed two times with PBS to eliminate non internalized parasites. One mL of fresh complete RPMI 1640 medium supplemented with 10% FBS and 1% antibiotics was added into each well, cells were incubated again to guarantee multiplication of intracellular parasites. After 24 h of infection, culture medium was replaced by fresh culture medium containing each compound at 50–6.12 and 1.56 μg/mL and plates were incubated at 37 °C, 5% CO2. After 72 h, inhibition of the infection was determined. For this, cells were removed from the bottom plate with a trypsin/EDTA (250 mg) solution; recovered cells were centrifuged at 1100 rpm during 10 min at 4 °C, the supernatant was discarded and cells were washed with 1 mL of cold PBS and centrifuged at 1100 rpm during 10 min at 4 °C. The supernatant was discarded and cells were suspended in 500 μL of PBS and analyzed by flow cytometry (FC 500MPL, Cytomics, Brea, CA, US). All determinations for each compound including standard drugs were carried out by triplicate, in two independent experiments. Activity of the tested compounds was carried out in parallel with infection progress in culture medium alone and in culture medium with amphotericin B as antileishmanial drugs (positive controls).
Antileishmanial activity was determined according to percentage of infected cells and parasite amount obtained for each experimental condition by flow cytometer. The percentage of infected cells was determined as the number of positive events by green fluorescence (parasites) in y-axis and Forward Scatte in x-axis. Then, the parasitic load in those infected cells was determined by a histogram of the mean fluorescence intensity (MFI) of those fluorescent parasites (Pulido et al. [2012]).
Parasitemia inhibition was calculated by Eq. 2, where the MFI of control corresponds to 100% of parasitemia. In turn, inhibition percentage corresponds to 100% Parasitemia.

Data set [3] is described as follows: In vitro cytotoxicity, MTT assay. Type of data set: cell-based. The settings on record: human. As for the experimental part: (§1) Cytotoxic activity of the studied compounds was assessed in the human promonocytic U-937 cells (ATCC CRL-1593.2™) based on viability evaluated by the MTT (3-(4,5-dimethylthiazol-2-yl)-2,5-diphenyltetrazolium bromide) assay as described elsewhere (Taylor et al. [2011]). Briefly, U-937 cells grown in tissue flasks were harvested and washed with phosphate buffered saline (PBS) by centrifugation. Cells were counted and adjusted at 1 × 10^6 cells/mL of complete culture medium (RPMI-1640 supplemented with 10% Fetal Bovine Serum-FBS and 1% of antibiotics (100 ug/mL penicillin and 0.1 mg/mL streptomycin). One hundred µL of cell suspension were dispensed into each well of a 96-well cell-culture plate and then 100 µL of two-fold serial dilutions of the compounds (starting at 200 µg/mL) in complete RPMI 1640 medium were added. Plates were incubated at 37 °C, under 5% CO2 atmosphere during 72 h. Then, 10 µL of MTT solution (0.5 mg/mL) were added into each well, and plates were then incubated at 37 °C for 3 h. The formazan crystals were dissolved by adding 100 µL/well of dimethyl sulfoxide and 30 min incubation. Cell viability was determined according to the intensity of color (absorbance) registered as optical densities (O.D) obtained at 570 nm in a Varioskan™ Flash Multimode Reader-ThermoScientific, USA spectrophotometer. Cells cultured in absence of compounds were used as control of viability (negative control), while doxorrubicin was used as control for cytotoxic drugs. Non-specific absorbance was corrected by subtracting the O.D of the blank. Assays were conducted in two independent runs with three replicas per each concentration tested.
(§2) Cytotoxicity was determined according to cell growth (viability) and mortality percentages obtained for each isolated experiment (compounds, doxorubicin and culture medium). Results were expressed as 50 lethal concentrations (LC50), corresponding to the concentration necessary to eliminate 50% of cells, calculated by Probit analysis (Finney [1978]). Percentage of viability was calculated by Eq. 1, where the optical density (O.D) of control corresponds to 100% of viability (cell growth).1 %Mortality=1-O.D Exposed cells/O.D Control cells×100

Data set [4] has as its system intracellular amastigotes of L. (V) panamensis. As to the kind of experiment: In vitro antileishmanial activity on intracellular amastigotes (GFP parasites, flow cytometry). It is filed as cell-based, Leishmania (Viannia) panamensis. Particulars: for inhibition at 20 µg/mL: U-937, 72 h, infected U-937 cells, read-out: Inhibition intracellular amastigotes growth (%).
For another data set, the system named is CHO-K1 cells. Also on record: method as in Herrera et al. 2018. The settings on record: previous study; ref Herrera et al. 2018; cited from earlier work.
A further data set relates to SW480 cells. Also on record: method as in Herrera et al. 2018. Particulars: previous study; ref Herrera et al. 2018; cited from earlier work.
The test system of data set [5] is promastigote forms of L. amazonensis. Also on record: method as in Rosa et al. 2017. The settings on record: ref Rosa et al. 2017; read-out: IC50 against promastigote forms of L. amazonensis; cited from earlier work.
In data set [6] the test system is amastigote forms of L. amazonensis. Also on record: method as in Rosa et al. 2017. The settings on record: ref Rosa et al. 2017; read-out: IC50 against amastigote forms of L. amazonensis; cited from earlier work.
The test system of data set [7] is intracellular amastigotes of L. donovani. Also on record: method as in Pierson et al. 2010. Particulars: ref Pierson et al. 2010; cited from earlier work.
The test system of a further data set is U-937 cells. As to the kind of experiment: In vitro cytotoxicity, MTT assay. It is filed as cell-based. The settings on record: 72 h, MTT. As for the experimental part: as §1, §2

Where “and” joins values, the source holds several entries; their conditions need not be identical. Equal entries are not always repeated.

With `C=C(C)[C@H]1O[C@@H]1c1c(OC[C@H]2OC2(C)C)ccc2ccc(=O)oc12` (relative stereo) [B], the “EC50 against axenic amastigote forms of L. panamensis” value (from here on “EC50 against axenic amastigote forms”) in data set [1] is reported as 9.9 µg/mL.
As to `C[C@@H]1[C@H](O)[C@@H](C)/C=C/C=C/C=C/C=C/C=C/C=C/C=C/[C@H](O[C@@H]2O[C@H](C)[C@@H](O)[C@H](N)[C@@H]2O)C[C@@H]2O[C@](O)(C[C@@H](O)C[C@@H](O)[C@H](O)CC[C@@H](O)C[C@@H](O)CC(=O)O[C@H]1C)C[C@H](O)[C@H]2C(=O)O` [Amphotericin B, reference compound], the 50% effective concentration (EC50) in data set [2] (72 h, Probit) was 0.05 µg/mL and 50 nM. Further, the “SI (selectivity index = LC50/EC50)” value in data set [2] was 722. Besides, the CC50 at 72 h in data set [3] was 36.1 µg/mL and 39.1 µM. In data set [4] (dose used 0.05 µg/ml, 72 h), 0.05 µg/mL produced 62.7 ± 1.4% inhibition of growth.
Turning to `COc1ccc2ccc(=O)oc2c1-c1cocc1C` [C], the “EC50 against axenic amastigote forms” value in data set [1] was 10.5 µg/mL.
For `CCCCCCCCOc1ccc2c(C)c(/C=C/c3ccc(OC)cc3)c(=O)oc2c1` [Compound 3], the CC50 at 72 h in data set [3] was > 200 µg/mL and > 549 µM. Further, the inhibition at 20 µg/mL in data set [4] was found to be 0%.
Turning to `CCCCCCCCOc1ccc2c(C)c(/C=C/c3ccc(OC)c(OC)c3)c(=O)oc2c1` [Compound 4], the CC50 at 72 h in data set [3] was 26 µg/mL and 66 µM. Also, in [4], the inhibition at 20 µg/mL was determined as 32.5 ± 0.8%.
Take `CCCCCCCCOc1ccc2c(C)c(/C=C/c3ccc(OC)cc3OC)c(=O)oc2c1` [Compound 5]: in data set [3], the CC50 at 72 h was > 200 µg/mL and > 507 µM. Also, the inhibition at 20 µg/mL in data set [4] was 3.7 ± 0.8%.
With `CCCCCCCCOc1ccc2c(C)c(/C=C/c3ccc(O)c(OC)c3)c(=O)oc2c1` [Compound 6], the EC50 in data set [2] (72 h, Probit) is 15.4 µg/mL and 40.5 µM. For the same compound, the “SI (selectivity index = LC50/EC50)” value in [2] is recorded as 1.2. The “Inhibition intracellular amastigotes growth (%)” value in data set [2] (at 20 µg/ml, 72 h, infected U-937 cells) was 83.5 ± 5.0%. Further, the IC50 was 40.5 µM in data set [2] (read-out: IC50 against L. (V.) panamensis amastigotes (abstract)), 69.8 µM with CHO-K1 cells and 26.1 µM in the data set on SW480 cells. For the same compound, in data set [3], the CC50 at 72 h was 19.7 µg/mL and 51.8 µM. For the same compound, in data set [4], the inhibition at 20 µg/mL was above 83%.
As to `CCCCCCCCOc1ccc2c(C)c(/C=C/c3cc(OC)ccc3OC)c(=O)oc2c1` [Compound 7], the CC50 at 72 h in data set [3] is > 200 µg/mL and > 507 µM. Further, the inhibition at 20 µg/mL in data set [4] worked out at 7.1 ± 1.5%.
As to `CCCCCCCCOc1ccc2c(C)c(/C=C/c3cc(OC)c(O)c(OC)c3)c(=O)oc2c1` [Compound 8], the CC50 at 72 h in data set [3] was 1 µg/mL and 2.4 µM. The same compound registered an inhibition of growth at 1 µg/mL in data set [4] (dose used 1.0 µg/ml, 72 h) of 0%.
In the case of `CCCCCCCCOc1ccc2c(C)c(/C=C/c3ccc4c(c3)OCO4)c(=O)oc2c1` [Compound 9], in data set [3], the CC50 at 72 h is > 200 µg/mL and > 529 µM. For the same compound, the inhibition at 20 µg/mL in data set [4] stood at 0%.
Regarding `C=C(C)C1OC1c1c(OC)ccc2ccc(=O)oc12` (centres unmarked) [D], in [1], the “EC50 against axenic amastigote forms” value is 14.1 µg/mL.
Regarding `CC(=O)OC[C@H]1O[C@@H](Oc2ccc3c(-c4ccccc4)cc(=O)oc3c2)[C@H](OC(C)=O)[C@@H](OC(C)=O)[C@@H]1OC(C)=O` [E], the concentration for half-maximal inhibition (IC50) in [5] is 10 µM; in data set [6], 34.9 µM.
As to `COc1ccc(-c2cc(=O)oc3cc(OC)c(OC)cc23)cc1OC` [F], in data set [7], the IC50 is 1.1 µM.
For the compound Meglumine antimoniate, the “Inhibition intracellular amastigotes growth (%)” value in data set [2] (72 h) is on record as 79.4 ± 2.1^ g %. For the same compound, in [2] (72 h, Probit), the “Anti-leishmanial activity on intracellular amastigotes EC50” value worked out at 9.4 ± 2.1 µg/mL and the EC50 was 25.7 µM. For the same compound, the “Cytotoxicity on U-937 cells LC50” value in the data set on U-937 cells was 416.4 ± 66.6 µg/mL. Besides, the CC50 in the data set with U-937 cells (read-out: Cytotoxicity on U-937 cells LC50 (converted)) was 1140 µM.
